Test results as given in patent publication US20240239767A1 (AstraZeneca AB, priority 2022, published 2024).

Legend:
[1] = molecular target: T1, potassium ion channel hERG (human Ether-á-go-go-Related Gene) (Homo sapiens, UniProt Q12809); assay: Assay 5 - hERG assay (SyncroPatch 384PE patch clamp, CHO cells); assay type: cell-based; details: geometric mean, CHO cells over-expressing hERG, read-out: Assay 5 (hERG Hu CHO IF EPh CR-Syncro) GMean IC50
T1 construct: expressed in transfected cells; host or cells: Chinese hamster ovary K1 (CHO)
Protocol: Assay 5—hERG Assay (Human Ether-á-go-go-Related Gene)
This assay (human Ether-á-go-go-Related Gene) measures activity of the compounds at the potassium ion channel hERG (human Ether-á-go-go-Related Gene).
Experiments were performed on the SyncroPatch 384PE high throughput patch clamp platform at room temperature and medium resistance chips with 4 patch holes per site. Chinese hamster ovary K1 (CHO) cell lines over-expressing the ion channel of choice (hERG) were used in assay-ready format and kept in liquid nitrogen or were used from live culture. Cells were either thawed and diluted in HBSS or were detached from flasks and resuspended in HBSS. HBSS comprised 140 mM NaCl, 4 mM KCl, 10 mM HEPES and 5 mM Glucose (pH 7.4). The internal patch clamp solution was KF 120 mM, KCl 20 mM, HEPES 10 mM, EGTA 10 mM, and 25 μM Escin (pH 7.2). After the sealing process was complete, the external solution was exchanged for external patch clamp solution comprising NaCl 80 mM, KCl 4 mM, HEPES 10 mM, CaCl2 2 mM, MgCl2 1 mM, glucose 5 mM, and NMDG 60 mM (pH 7.4). All solutions were stored at room temperature, except Escin, which was stored at 4° C. All test compounds were dispensed in greiner-bio 384 well plates and tested in a 6 point cumulative assay (final DMSO concentration 0.33%). Only wells that passed previously agreed acceptance criteria for this platform were used in this analysis (30 MegaOhm seal resistance, Z prime>0.4 and current size>0.2 nA).

[2] = molecular target: GSK3b (Glycogen synthase kinase-3 beta) (Homo sapiens, UniProt P49841); assay: Assay 6 - GSK3b assay (ThermoFisher, FRET Z-Lyte); assay type: biochemical; details: geometric mean; ATP Conc: 10.000 μM; read-out: Assay 6 (GSK3B FRET-Z-Lyte CR) GMean IC50 (μM) ATP Conc: 10.000
Protocol: This assay measures the activity of the compounds at GSK3b (Glycogen synthase kinase-3 beta).
The test compounds were screened in 1% DMSO (final) in the well. For 10-point titrations, 3-fold serial dilutions are conducted from the starting concentration of 10 μM.
• Bar-coded Corning, low volume NBS, black 384-well plate • 1. 2.5 μL—4× Test Compound or 100 nL 100× plus 2.4 μL kinase buffer • 2. 5 μL—2× Peptide/Kinase Mixture • 3. 2.5 μL—4× ATP Solution • 4. 30-second plate shake • 5. 60-minute Kinase Reaction incubation at room temperature • 6. 5 μL—Development Reagent Solution • 7. 30-second plate shake • 8. 60-minute Development Reaction incubation at room temperature • 9. Read on fluorescence plate reader and analyse the data
In step 2, the 2× GSK3β (GSK3 beta)/Ser/Thr (Glycogen synthase kinase-3 beta/Serine/Threonine) 09 mixture is prepared in 50 mM HEPES (4-(2-hydroxyethyl)-1-piperazineethanesulfonic acid) pH 7.5, 0.01% BRIJ-35, 10 mM MgCl2, 1 mM EGTA (egtazic acid). The final 10 μL Kinase Reaction consists of 0.22-0.92 ng GSK3β (GSK3 beta) and 2 μM Ser/Thr 09 in 50 mM HEPES pH 7.5, 0.01% BRIJ-35, 10 mM MgCl2, 1 mM EGTA.
In step 3 the ATP Solution is diluted to a 4× working concentration in Kinase Buffer (50 mM HEPES pH 7.5, 0.01% BRIJ-35, 10 mM MgCl2, 1 mM EGTA).
In Step 6 the Development Reagent is diluted 1:512 in Development Buffer (10× Novel PKC Lipid Mix: 2 mg/mL Phosphatidyl Serine, 0.2 mg/mL DAG in 20 mM HEPES, pH 7.4, 0.3% CHAPS).
SelectScreen® Kinase Profiling Service uses XLfit from IDBS. The dose response curve is curve fit to model number 205 (sigmoidal dose-response model).

PCSK9 [3] = molecular target: T2, PCSK9 (Homo sapiens, UniProt Q8NBP7, G670E/V474I); assay: cell-based
Target sequence in this assay (Q8NBP7 31-152): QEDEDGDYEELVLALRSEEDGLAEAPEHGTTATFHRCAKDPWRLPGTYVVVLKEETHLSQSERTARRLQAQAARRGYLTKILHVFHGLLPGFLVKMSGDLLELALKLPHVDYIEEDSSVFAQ
Target sequence in this assay (Q8NBP7 153-692 V474I/G670E): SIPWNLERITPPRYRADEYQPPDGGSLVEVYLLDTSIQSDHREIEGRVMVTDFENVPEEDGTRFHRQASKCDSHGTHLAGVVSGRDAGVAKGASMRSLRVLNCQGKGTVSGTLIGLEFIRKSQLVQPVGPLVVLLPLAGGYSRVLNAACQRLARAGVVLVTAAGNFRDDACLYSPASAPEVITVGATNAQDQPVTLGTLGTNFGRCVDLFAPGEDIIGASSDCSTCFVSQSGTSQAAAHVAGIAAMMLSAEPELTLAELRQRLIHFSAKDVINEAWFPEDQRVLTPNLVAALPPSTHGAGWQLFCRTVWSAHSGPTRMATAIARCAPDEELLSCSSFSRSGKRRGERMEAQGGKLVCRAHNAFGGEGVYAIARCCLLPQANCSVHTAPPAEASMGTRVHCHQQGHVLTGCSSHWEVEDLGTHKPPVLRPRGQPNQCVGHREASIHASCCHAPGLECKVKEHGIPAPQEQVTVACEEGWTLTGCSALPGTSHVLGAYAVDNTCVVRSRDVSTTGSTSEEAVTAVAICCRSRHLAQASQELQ
Excerpt: This assay measures for PCSK9 antagonist activity based on a test compound's capacity to restore LDL-C uptake in HepG2 cells. The assay is based on exogenous PCSK9 and LDL-C complexed with a pH-sensitive dye. Outside the cells, at neutral pH, the pHrodo Red-LDL is dimly fluorescent but upon LDLR mediated endocytosis it fluoresces brightly. PCSK9 traffics the LDLR to intracellular degradation and reduces uptake of LDL-C. Inhibition of PCSK9 reduces LDLR degradation and the increased LDL-C uptake is quantified by fluorescence microscopy.
Cell medium: MEM supplemented with 10% FBS, 1× NEAA and Sodium Pyruvate
Assay medium: OptiMem supplemented with penicillin/streptomycin
Cells: HepG2 (ATCC #HB-8065)
Cryopreserved HepG2 cells were thawed in assay medium and centrifuged for 5 min at 250 g. Supernatant was discarded and the cell pellet resuspended in cell medium and counted with a Nucleocounter. Cells were again centrifuged 5 min at 250 g and the pellet was resuspended to 500000 cells/mL in assay medium. • 2. 20 μL of above cell mix was dispensed into black pclear TC treated 384 well plates with Multidrop Combi and left at room temperature for 20 minutes. • 3. Plates were incubated at 37° C., 5% CO2 for 24 h
Test compounds were prepared in concentration response in DMSO with a half-log dilution factor in DMSO in Echo 384 LDV plates starting at 10 mM. • 2. 30 nL of above test compounds were dispensed with Echo 655 to cells for a top concentration of 10 μM • 3. […] Plates were incubated at 37° C., 5% CO2 for 24 h
10 μL pHrodo Red-LDL in assay medium was dispensed to cells with Multidrop Combi for 6 μg/mL • 2. Plates were incubated at 37° C., 5% CO2 and imaged with the Incucyte S3 after 4 h and 24 h
Image data was processed using Incucyte 2021, a software to identify cells and red fluorescent intensity. Screener was used to further process data. Data was normalized as % effect of the signal between median values of the on-plate controls of DMSO and 100 nM Evolocumab according to the formula % effect=−100*(x−DMSO)/(Evolocumab−DMSO) where x equals the measured signal. Concentration response data of the normalized values were fitted using a four-parameter logistic fit.

PCSK9 [4] = molecular target: T2, PCSK9; assay: biochemical
Target sequence in this assay (Q8NBP7 with tags, fused parts or gaps V474I/G670E): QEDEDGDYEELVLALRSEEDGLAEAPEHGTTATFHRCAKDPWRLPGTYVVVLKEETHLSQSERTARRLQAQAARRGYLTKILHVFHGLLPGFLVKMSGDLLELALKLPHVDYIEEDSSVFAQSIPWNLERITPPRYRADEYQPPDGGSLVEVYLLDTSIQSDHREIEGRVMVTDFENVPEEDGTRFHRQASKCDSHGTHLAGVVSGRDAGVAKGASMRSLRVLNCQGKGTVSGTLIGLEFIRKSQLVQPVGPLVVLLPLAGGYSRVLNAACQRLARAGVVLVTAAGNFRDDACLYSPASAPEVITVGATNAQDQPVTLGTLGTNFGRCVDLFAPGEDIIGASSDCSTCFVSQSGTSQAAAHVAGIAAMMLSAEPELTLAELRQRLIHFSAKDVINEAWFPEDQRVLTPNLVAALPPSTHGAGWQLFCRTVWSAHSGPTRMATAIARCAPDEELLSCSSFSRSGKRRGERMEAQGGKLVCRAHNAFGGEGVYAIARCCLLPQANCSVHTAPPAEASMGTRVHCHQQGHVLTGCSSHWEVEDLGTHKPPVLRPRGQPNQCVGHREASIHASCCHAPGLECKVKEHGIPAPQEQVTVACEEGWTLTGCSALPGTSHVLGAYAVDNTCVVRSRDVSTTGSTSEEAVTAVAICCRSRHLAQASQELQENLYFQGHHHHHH

T1 sequence (Q12809 whole entry): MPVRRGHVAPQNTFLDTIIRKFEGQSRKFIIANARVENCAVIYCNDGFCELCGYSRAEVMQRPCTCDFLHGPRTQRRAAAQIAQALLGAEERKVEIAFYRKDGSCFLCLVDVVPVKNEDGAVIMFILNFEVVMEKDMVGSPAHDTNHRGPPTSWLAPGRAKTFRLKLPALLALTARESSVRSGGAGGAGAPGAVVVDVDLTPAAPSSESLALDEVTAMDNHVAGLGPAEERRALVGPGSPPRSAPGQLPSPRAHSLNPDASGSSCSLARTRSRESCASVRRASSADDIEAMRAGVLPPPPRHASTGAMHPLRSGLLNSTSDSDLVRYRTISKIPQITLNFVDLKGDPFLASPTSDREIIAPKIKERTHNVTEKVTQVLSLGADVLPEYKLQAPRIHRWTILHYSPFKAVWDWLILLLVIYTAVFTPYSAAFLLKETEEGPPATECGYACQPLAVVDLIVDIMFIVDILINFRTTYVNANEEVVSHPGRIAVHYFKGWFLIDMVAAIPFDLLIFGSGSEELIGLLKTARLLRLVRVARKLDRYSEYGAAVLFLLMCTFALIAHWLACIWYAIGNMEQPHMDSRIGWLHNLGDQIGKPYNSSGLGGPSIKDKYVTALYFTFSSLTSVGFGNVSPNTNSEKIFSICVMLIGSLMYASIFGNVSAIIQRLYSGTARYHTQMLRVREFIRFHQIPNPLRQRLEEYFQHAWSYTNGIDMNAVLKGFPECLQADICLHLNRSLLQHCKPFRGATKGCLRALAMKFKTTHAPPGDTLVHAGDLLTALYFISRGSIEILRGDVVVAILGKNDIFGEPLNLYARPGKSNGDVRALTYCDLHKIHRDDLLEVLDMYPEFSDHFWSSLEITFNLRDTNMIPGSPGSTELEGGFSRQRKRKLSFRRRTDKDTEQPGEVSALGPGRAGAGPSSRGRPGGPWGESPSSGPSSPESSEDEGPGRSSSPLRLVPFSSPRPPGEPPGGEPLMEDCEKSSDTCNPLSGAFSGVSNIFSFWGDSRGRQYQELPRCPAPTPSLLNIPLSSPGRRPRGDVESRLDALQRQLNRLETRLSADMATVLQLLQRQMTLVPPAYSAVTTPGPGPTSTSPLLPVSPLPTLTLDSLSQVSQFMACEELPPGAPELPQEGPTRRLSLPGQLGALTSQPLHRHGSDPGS
GSK3b (Glycogen synthase kinase-3 beta), sequence (P49841 whole entry): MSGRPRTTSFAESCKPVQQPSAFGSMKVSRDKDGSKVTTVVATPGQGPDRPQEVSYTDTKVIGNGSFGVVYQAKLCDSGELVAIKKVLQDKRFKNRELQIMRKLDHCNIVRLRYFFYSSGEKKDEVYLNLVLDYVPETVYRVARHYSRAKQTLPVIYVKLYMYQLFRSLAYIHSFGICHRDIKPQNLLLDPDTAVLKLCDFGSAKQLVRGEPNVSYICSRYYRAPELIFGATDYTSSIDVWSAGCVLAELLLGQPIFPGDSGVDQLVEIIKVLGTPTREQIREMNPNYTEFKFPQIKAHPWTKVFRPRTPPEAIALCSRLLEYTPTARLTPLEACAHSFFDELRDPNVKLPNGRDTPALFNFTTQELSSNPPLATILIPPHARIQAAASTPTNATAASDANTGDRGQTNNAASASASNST

Compound | IC50 [1] | IC50 [2] | IC50 (PCSK9 [3]) | IC50 (PCSK9 [4])
COc1cnc2[nH]c(N[C@H]3CC[C@H](Nc4ccc(-n5ccccc5=O)cn4)C3)nc2c1 [Example 57, 6′-(((1S,3S)-3-((6-Methoxy-3H-imidazo[4,5-b]pyridin-2-yl)amino)cyclopentyl)amino)-2H-[1,3′-bipyridin]-2-one] | > 40 µM | 5.45 µM | 66 nM | 4.3 nM
Cc1cnc2[nH]c(N[C@H]3CC[C@H](Nc4ccc(-n5ccccc5=O)cn4)C3)nc2c1 [Example 49, 6′-(((1S,3S)-3-((6-Methyl-3H-imidazo[4,5-b]pyridin-2-yl)amino)cyclopentyl)amino)-2H-[1,3′-bipyridin]-2-one] | > 40 µM | 5.59 µM | 43 nM | 2.8 nM
O=c1c(C(F)(F)F)cccn1-c1ccc(N[C@H]2CC[C@H](Nc3nc4cccnc4[nH]3)C2)nc1 [Example 64, 6′-(((1S,3S)-3-((3H-Imidazo[4,5-b]pyridin-2-yl)amino)cyclopentyl)amino)-3-(trifluoromethyl)-2H-[1,3′-bipyridin]-2-one] | > 40 µM | > 10 µM | 99 nM | 1.7 nM
O=c1c(Cl)cccn1-c1ccc(N[C@H]2CC[C@H](Nc3nc4cccnc4[nH]3)C2)nc1 [Example 42, 6′-(((1S,3S)-3-((3H-Imidazo[4,5-b]pyridin-2-yl)amino)cyclopentyl)amino)-3-chloro-2H-[1,3′-bipyridin]-2-one] | > 40 µM | 6.14 µM | 77 nM | 0.9 nM
N#Cc1ccc2nc(N[C@H]3CC[C@H](Nc4ccc(-n5ccccc5=O)cn4)C3)oc2c1 [Example 5, 2-(((1S,3S)-3-((2-Oxo-2H-[1,3′-bipyridin]-6′-yl)amino)cyclopentyl)amino)benzo[d]oxazole-6-carbonitrile] | 6 µM | 5.52 µM | 1720 nM | 8.9 nM
Cc1cccn(-c2ccc(N[C@H]3CC[C@H](Nc4nc5cccnc5s4)C3)nc2)c1=O [Example 22, 3-Methyl-6′-(((1S,3S)-3-(thiazolo[5,4-b]pyridin-2-ylamino)cyclopentyl)amino)-2H-[1,3′-bipyridin]-2-one] | 25.7 µM | > 10 µM | 54 nM | 1.2 nM
COc1ccc(=O)n(-c2ccc(N[C@H]3CC[C@H](Nc4nc5cccnc5[nH]4)C3)nc2)c1 [Example 72, 6′-(((1S,3S)-3-((3H-Imidazo[4,5-b]pyridin-2-yl)amino)cyclopentyl)amino)-5-methoxy-2H-[1,3′-bipyridin]-2-one] | > 40 µM | 0.01 µM | 163 nM | 5 nM
N#Cc1ccc(=O)n(-c2ccc(N[C@H]3CC[C@H](Nc4nc5cccnc5[nH]4)C3)nc2)c1 [Example 43, 6′-(((1S,3S)-3-((3H-Imidazo[4,5-b]pyridin-2-yl)amino)cyclopentyl)amino)-2-oxo-2H-[1,3′-bipyridine]-5-carbonitrile] | > 40 µM | > 10 µM | 200 nM | 4.2 nM
O=c1ccc(OC(F)F)cn1-c1ccc(N[C@H]2CC[C@H](Nc3nc4cccnc4o3)C2)nc1 [Example 78, 5-(Difluoromethoxy)-6′-(((1S,3S)-3-(oxazolo[5,4-b]pyridin-2-ylamino)cyclopentyl)amino)-2H-[1,3′-bipyridin]-2-one] | 39.6 µM | > 10 µM | 367 nM | 18.9 nM
O=c1ccc(-c2nn[nH]n2)cn1-c1ccc(N[C@H]2CC[C@H](Nc3nc4cccnc4[nH]3)C2)nc1 [Example 86, 6′-(((1S,3S)-3-((3H-Imidazo[4,5-b]pyridin-2-yl)amino)cyclopentyl)amino)-5-(2H-tetrazol-5-yl)-2H-[1,3′-bipyridin]-2-one] |  |  | 187 nM | 3.5 nM
O=c1ccccn1-c1ccc(N[C@H]2CC[C@H](Nc3nc4cc(C(F)(F)F)cnc4[nH]3)C2)nc1 [Example 62, 6′-(((1S,3S)-3-((6-(Trifluoromethyl)-3H-imidazo[4,5-b]pyridin-2-yl)amino)cyclopentyl)amino)-2H-[1,3′-bipyridin]-2-one] | > 40 µM | 0.153 µM | 89 nM | 2.2 nM
Cn1c(=O)n(-c2ccc(N[C@H]3CC[C@H](Nc4nc5cccnc5[nH]4)C3)nc2)c2ccccc21 [Example 36, 1-(6-(((1S,3S)-3-((3H-Imidazo[4,5-b]pyridin-2-yl)amino)cyclopentyl)amino)pyridin-3-yl)-3-methyl-1,3-dihydro-2H-benzo[d]imidazol-2-one] | 25.8 µM | > 10 µM | 60 nM | 0.6 nM
O=c1ccccn1-c1ccc(N[C@H]2CC[C@H](Nc3nc4cc(Br)cnc4[nH]3)C2)nc1 [Example 54, 6′-(((1S,3S)-3-((6-Bromo-3H-imidazo[4,5-b]pyridin-2-yl)amino)cyclopentyl)amino)-2H-[1,3′-bipyridin]-2-one] | > 40.1 µM | 0.306 µM | 41 nM | 0.7 nM
O=C1CN(c2ccc(N[C@H]3CC[C@H](Nc4nc5cccnc5[nH]4)C3)nc2)C(=O)N1 [Example 65, 1-(6-(((1S,3S)-3-((3H-Imidazo[4,5-b]pyridin-2-yl)amino)cyclopentyl)amino)pyridin-3-yl)imidazolidine-2,4-dione] | > 40 µM | 8.19 µM |  | 7.8 nM
O=c1ccccn1-c1ccc(N[C@H]2CC[C@H](Nc3nc4cc(CO)cnc4s3)C2)nc1 [Compound 88] | > 40.1 µM | > 10 µM |  | 9.9 nM
O=c1ccccn1-c1ccc(N[C@H]2CC[C@H](Nc3nc4ccccc4s3)C2)nc1 [Example 7, 6′-(((1S,3S)-3-(Benzo[d]thiazol-2-ylamino)cyclopentyl)amino)-2H-[1,3′-bipyridin]-2-one] | 12.6 µM | > 10 µM |  | 324 nM
N#Cc1ccc(=O)n(-c2ccc(N[C@H]3CC[C@H](Nc4nc5cccnc5o4)C3)nc2)c1 [Example 17, 6′-(((1S,3S)-3-(Oxazolo[5,4-b]pyridin-2-ylamino)cyclopentyl)amino)-2-oxo-2H-[1,3′-bipyridine]-5-carbonitrile] | > 40.1 µM | > 10 µM |  | 30.5 nM
Cc1ccc2nc(N[C@H]3CC[C@H](Nc4ccc(-n5ccccc5=O)cn4)C3)sc2c1 [Example 8, 6′-(((1S,3S)-3-((6-Methylbenzo[d]thiazol-2-yl)amino)cyclopentyl)amino)-2H-[1,3′-bipyridin]-2-one] | 6.32 µM | > 10 µM |  | 2080 nM
O=c1cccnn1-c1cnc(N[C@H]2CC[C@H](Nc3nc4cccnc4[nH]3)C2)nc1 [Example 31, 2-(2-(((1S,3S)-3-((3H-Imidazo[4,5-b]pyridin-2-yl)amino)cyclopentyl)amino)pyrimidin-5-yl)pyridazin-3(2H)-one] | > 40.1 µM | > 10 µM |  | 25.1 nM
COc1ccnc2[nH]c(N[C@H]3CC[C@H](Nc4ccc(-n5ccccc5=O)cn4)C3)nc12 [Example 27, 6′-(((1S,3S)-3-((7-Methoxy-3H-imidazo[4,5-b]pyridin-2-yl)amino)cyclopentyl)amino)-2H-[1,3′-bipyridin]-2-one] | > 40 µM | 2.49 µM |  | 49 nM
